Laboratory results as given in US20210361581A1, “ADDITIVE FOR A POWDER MATERIAL INTENDED FOR COMPACTION INTO SHAPED BODIES” (IOI OLEO GMBH, priority 2018, published 2021).

Legend:
[1] = Contact angle with water (hydrophobicity); type: physicochemical; settings: 16 weeks at room temperature (20° C.) and at 40° C., against start value
Experimental: An advantageous property of the PGFEs for an additive in accordance with claim 1 which should be considered is the hydrophobicity, which can be determined by determining the contact angle. The determination of the hydrophobicity is carried out by determining the contact angle between the PGFE in the solid physical state and a droplet of purified water. According to Young's equation, cos θ=(γSV−γSL)/γLV, wherein γSL is the interfacial tension between the PGFE and water, γLV is the interfacial tension of the water droplet and γSV is the surface tension between the PGFE and the surrounding air. θ is the contact angle. Thus, the larger the contact angle θ, the higher is the surface tension between the PGFE and the water and the higher is the hydrophobicity of the PGFE under investigation. The contact angles for the proposed polyglycerol fatty acid esters also correlate with the HLB value which is often used in pharmaceutical technology, which is on a scale of 0 to 20 and provides information regarding the ratio of lipophilic to hydrophilic molecular fractions, wherein the hydrophilic fraction increases with increasing HLB value. […]

[2] = Lopes et al., J. Pharm. Sci. 104: 4257-4265, 2015; cited from earlier work

CCCCCCCCCCCCCCCCCC(=O)OCC(COC(=O)CCCCCCCCCCCCCCCCC)OC(=O)CCCCCCCCCCCCCCCCC [glycerol tristearate]
variation (deviation) of contact angle with water after 16 weeks [1]: 40 ° | increase in the crystal thickness after complete transformation of a- into b-modification [2]: approximately 67%
